Results published in ChEMBL document CHEMBL1250441, “Antitumor agents 273. Design and synthesis of N-alkyl-thiocolchicinoids as potential antitumor agents” (Bioorg Med Chem Lett, 2010).
Values after ≈ are worked out from the molar mass of the structure shown.

How the values were obtained:
[1] = Cytotoxicity against human KBVIN cells expressing p-glycoprotein after 2 days; type: functional; settings: 48 h, read-out: ED50 (the source's name)
[2] = test system: KB; assay: Cytotoxicity against human KB cells after 2 days; type: functional; settings: 48 h, read-out: ED50 (the source's name)
[3] = test system: HCT-8; assay: Cytotoxicity against human HCT8 cells after 2 days; type: functional; settings: HCT-8, 48 h, read-out: ED50 (the source's name)
[4] = test system: DU-145; assay: Cytotoxicity against human DU145 cells after 2 days; type: functional; settings: DU-145, 48 h, read-out: ED50 (the source's name)
[5] = test system: SK-BR-3; assay: Cytotoxicity against human SKBR3 cells after 2 days; type: functional; settings: SK-BR-3, 48 h, read-out: ED50 (the source's name)
[6] = Inhibition of tubulin assembly
[7] = test system: A549; assay: Cytotoxicity against human A549 cells after 2 days; type: functional; settings: A549, 48 h, read-out: ED50 (the source's name)
[8] = test system: A549; assay: Selectivity ratio of ED50 for human HCT8 cells to ED50 for human A549 cells; type: functional
[9] = Solubility of the compound in water; type: physicochemical; settings: buffer
[10] = Selectivity ratio of ED50 for human HCT8 cells to ED50 for human KBVIN cells; type: functional
[11] = test system: HCT-8; assay: Selectivity ratio of ED50 for human HCT8 cells to ED50 for human KB cells; type: functional
[12] = test system: SK-BR-3; assay: Selectivity ratio of ED50 for human SKBR3 cells to ED50 for human KB cells; type: functional
[13] = test system: A549; assay: Selectivity ratio of ED50 for human SKBR3 cells to ED50 for human A549 cells; type: functional
[14] = test system: SK-BR-3; assay: Selectivity ratio of ED50 for human SKBR3 cells to ED50 for human KBVIN cells; type: functional
[15] = test system: SK-BR-3; assay: Selectivity ratio of ED50 for human SKBR3 cells to ED50 for human DU145 cells; type: functional
[16] = test system: DU-145; assay: Selectivity ratio of ED50 for human HCT8 cells to ED50 for human DU145 cells; type: functional

SMILES	EC50 [1] [µg/mL]	EC50 [2] [µg/mL]	EC50 [3] [µg/mL]	EC50 [4] [µg/mL]	EC50 [5] [µg/mL]	IC50 [6] [µM]	EC50 [7] [µg/mL]	Ratio ED50 [8]	solubility [9] [mg/mL]	Ratio ED50 [10]	Ratio ED50 [11]	Ratio ED50 [12]	Ratio ED50 [13]	Ratio ED50 [14]	Ratio ED50 [15]	Ratio ED50 [16]
CCN[C@H]1CCc2cc(OC)c(OC)c(OC)c2-c2ccc(SC)c(=O)cc21	0.0146 (≈ 0.0364 µM)	0.02 (≈ 0.0498 µM)	0.031 (≈ 0.0772 µM)	0.0138 (≈ 0.0344 µM)	0.0141 (≈ 0.0351 µM)	5.4	0.0193 (≈ 0.0481 µM)	–	–	–	–	–	–	–	–	–
COc1cc2c(c(OC)c1OC)-c1ccc(SC)c(=O)cc1[C@@H](N(C)C)CC2.O=C(O)CCC(=O)O	0.125	0.12	0.022	0.124	0.0129	3.6	0.19	10	103	10	10	10	10	10	10	10
CCN(CC)[C@H]1CCc2cc(OC)c(OC)c(OC)c2-c2ccc(SC)c(=O)cc21.O=C(O)CCC(=O)O	0.151	0.063	0.11	0.125	0.136	16	0.181	–	107	–	–	–	–	–	–	–
COc1cc2c(c(OC)c1OC)-c1ccc(SC)c(=O)cc1[C@@H](NS(=O)(=O)c1ccccc1[N+](=O)[O-])CC2	0.112 (≈ 0.2 µM)	0.01 (≈ 0.0179 µM)	0.027 (≈ 0.0483 µM)	0.0129 (≈ 0.0231 µM)	0.0126 (≈ 0.0226 µM)	1.1	0.0209 (≈ 0.0374 µM)	–	–	–	–	–	–	–	–	–
COc1cc2c(c(OC)c1OC)-c1ccc(SC)c(=O)cc1[C@@H](N(C)S(=O)(=O)c1ccccc1[N+](=O)[O-])CC2	0.153 (≈ 0.266 µM)	0.035 (≈ 0.0611 µM)	0.12 (≈ 0.21 µM)	0.0312 (≈ 0.0545 µM)	0.0285 (≈ 0.0498 µM)	0.92	0.129 (≈ 0.225 µM)	–	–	–	–	–	–	–	–	–
CCN([C@H]1CCc2cc(OC)c(OC)c(OC)c2-c2ccc(SC)c(=O)cc21)S(=O)(=O)c1ccccc1[N+](=O)[O-]	0.174 (≈ 0.296 µM)	0.13 (≈ 0.222 µM)	0.52 (≈ 0.886 µM)	0.163 (≈ 0.278 µM)	0.148 (≈ 0.253 µM)	4.2	0.212 (≈ 0.361 µM)	–	–	–	–	–	–	–	–	–
CCCN([C@H]1CCc2cc(OC)c(OC)c(OC)c2-c2ccc(SC)c(=O)cc21)S(=O)(=O)c1ccccc1[N+](=O)[O-]	1.36 (≈ 2.27 µM)	0.96 (≈ 1.6 µM)	> 1	0.357 (≈ 0.595 µM)	0.616 (≈ 1.02 µM)	> 40	1.63 (≈ 2.72 µM)	–	–	–	–	–	–	–	–	–
COc1cc2c(c(OC)c1O)-c1ccc(SC)c(=O)cc1[C@@H](N(C)S(=O)(=O)c1ccccc1[N+](=O)[O-])CC2	1.49 (≈ 2.67 µM)	0.72 (≈ 1.29 µM)	> 1	1.15 (≈ 2.06 µM)	1.01 (≈ 1.81 µM)	3.6	1.68 (≈ 3.01 µM)	–	–	–	–	–	–	–	–	–
CN[C@H]1CCc2cc(OC)c(O)c(OC)c2-c2ccc(SC)c(=O)cc21	1.38 (≈ 3.7 µM)	0.55 (≈ 1.47 µM)	–	0.505 (≈ 1.35 µM)	0.487 (≈ 1.31 µM)	> 40	1.55 (≈ 4.14 µM)	–	–	–	–	–	–	–	–	–
CN[C@H]1CCc2cc(OC)c(OP(=O)(O)O)c(OC)c2-c2ccc(SC)c(=O)cc21	1.71 (≈ 3.76 µM)	0.25 (≈ 0.551 µM)	> 1	0.157 (≈ 0.347 µM)	0.137 (≈ 0.302 µM)	> 40	0.533 (≈ 1.18 µM)	–	15 (≈ 33100 µM)	–	–	–	–	–	–	–
CN[C@H]1CCc2cc(OC)c(O)c(OC)c2-c2ccc(SC)c(=O)cc21.O=C(O)CCC(=O)O	1.35	0.35	> 1	0.342	0.39	23	1.26	–	95	–	–	–	–	–	–	–
COc1cc2c(c(OC)c1OC)-c1ccc(OC)c(=O)cc1[C@@H](NC(C)=O)CC2 [COLCHICINE]	0.158 (≈ 0.395 µM)	0.0038 (≈ 0.00951 µM)	0.054 (≈ 0.135 µM)	0.0027 (≈ 0.00676 µM)	0.0027 (≈ 0.00676 µM)	–	0.0199 (≈ 0.0498 µM)	–	–	–	–	–	–	–	–	–
